In US20250114380A1, “SMALL MOLECULE CD38 INHIBITORS AND METHODS OF USING SAME” (President and Fellows of Harvard College, priority 2011, published 2025):

Columns and labels:
cellular NADase activity = assay: Cellular NADase activity; format: cell-based
From the text: FIG. 2A depicts inhibition in cellular NADase activity by CD38 inhibitors Apigenin and Quercetin. In certain embodiments, the invention relates to small molecules capable of inhibiting CD38 activity at nanomolar or micromolar concentrations (FIG. 1 and FIG. 3). Preliminary cellular assays on some of these compounds have shown that they are able to inhibit cellular NADase activity resulting in increased cellular NAD levels (FIG. 2a and FIG. 2b).

[1] = test system: murine oogonial stem cells (OSCs); assay: NAD+/NADH levels in oogonial stem cells; format: cell-based
Description: (§1) Oogonial stem cells were isolated from dissociated ovaries using a FACS based sorting protocol to purify OSCs free of contaminating oocytes (White et al., in press). Cells were maintained in culture medium consisted of minimum essential medium α (MEMα), 10% FBS, 1 mM sodium pyruvate, 1 mM non-essential amino acids, 2 mM 1-glutamine, 0.1 mM β-mercaptoethanol (Sigma), 10 ng/ml-1 LIF (Millipore), 1× N-2 MAX Media Supplement (R&D) 10 ng/ml EGF (Epidermal growth factor, Recombinant human; Gibco), 40 ng/ml human GDNF (glial cell line-derived neurotrophic factor; R&D systems), 1 ng/ml human bFGF (basic fibroblast growth factor; Gibco)
(§2) For all experiments 25,000 cells were plated in each well of a 24 well plate. Cells were allowed to attach for 24 h and then were treated with NMN (β-Nicotinamide mononucleotide; Sigma). Unless otherwise stated, NMN was added at for 12 and again for 6 hours before analysis (12+6 h).
NAD+/NADH levels were measured according to the manufacturer's instructions using the NAD/NADH Quantitation Kit (Biovision)

murine OSCs = assay: Mitochondrial DNA copy number in OSCs; format: cell-based
Description: as §1, §2
Total cellular DNA was isolated from cells at the indicated time points using DNeasy Blood & Tissue Kit (Qiagen) according to the manufacturer's instructions. Mt DNA copy number was quantified using LightCycler 480 SYBR Green I Master (Roche Applied Science) using the following primers on a Roche 480 PCR machine.

[2] = test system: cultured murine oogonial stem cells; assay: Spontaneous oocyte formation assay; format: cell-based; settings: 200 μM and 400 μM NMN
Description: FIG. 9 depicts the increase in spontaneuous oocyte formation in cultured murine oogonial stem cells by nicotinamide mononucleotide. For assessment of spontaneous oocyte formation, each well of a 24-well plate was seeded with 25.000 OSCs, and the number of oocytes formed and released into the medium per well was assessed the second day after seeding as well as the designated time points after NMN treatment. Left bar=vehicle; middle bar=200 μM nicotinamide mononucleotide (NMN); right bar=400 μM NMN.
For assessment of spontaneous oocyte formation, each well of a 24-well plate was seeded with 25.000 OSCs, and the number of oocytes formed and released into the medium per well was assessed the second day after seeding as well as the designated time points after NMN treatment.

[3] = NAD+ levels in vivo in mice
Description: Cardiac [NAD^+] declines with age and is reversed by NMN treatment (n=3; 200 mg/kg/d intraperitoneally for 1 week).
(§3) FIG. 11A depicts the restorative effects of an NAD^+ precursor (NMN) on mitochondrial function in vivo.

[4] = Mitochondrial function in skeletal muscle in vivo; settings: 24-month old mice, 1 week of treatment, I.P.
From the text: as §3

C2C 2 cells = assay: Mitochondrial function in C2C 2 cells; format: cell-based; settings: SIRT1-dependent (sh Ctl vs sh SIRT1)

SMILES | cellular NADase activity (cellular NADase activity) | cellular NAD+ [1] | cellular NAD+/NADH [1] | cellular NADH [1] | mitochondrial DNA content (murine OSCs) | spontaneous oocyte formation [2] | age-related decline of cardiac [NAD+] ([3]; 200 mg/kg/d intraperitoneally for 1 week) | rise of NAD+ levels in brain, heart and skeletal muscle ([3]; intraperitoneal injection) | NAD+ levels in vivo ([3]; young and old mice) | decline in mitochondrial function in skeletal muscle [4] | mitochondrial function (C2C 2 cells)
O=c1cc(-c2ccc(O)cc2)oc2cc(O)cc(O)c12 [Apigenin, 5,7,4′-Trihydroxyflavone] | inhibition | – | – | – | – | – | – | – | – | – | –
NC(=O)c1ccc[n+]([C@@H]2O[C@H](COP(=O)([O-])O)[C@@H](O)[C@H]2O)c1 [NMN, β-Nicotinamide mononucleotide] | – | increase | increase | increase | increase | increase | reversed | 30-100% | raises NAD^+ levels | completely reversed | increases mitochondrial function
O=c1c(O)c(-c2ccc(O)c(O)c2)oc2cc(O)cc(O)c12 [Quercetin, 3,5,7,3′,4′-Pentahydroxyflavone] | inhibition | – | – | – | – | – | – | – | – | – | –
